From ChEMBL document CHEMBL1201862, “PubChem BioAssay data set” (2004) come the findings set out here.

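Assay format: 96-well plates, 48-hour exposure. The concentration for 50% growth inhibition is given as GI50.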 Activity calls are given as the source filed them. Rule as the data show it: active = GI50 up to about 1.1 µM and inactive = higher. Some results are limits rather than exact numbers.

Some test systems named below: 786-0; A498; BT-549; CAKI-1; HCT-116; Hs-578T; MCF7; MDA-N; Malme-3M; NCI-H226; OVCAR-4; SF-295; SK-MEL-28; SK-MEL-2; SNB-19; T47D; U-251; UACC-257; UACC-62.
What all share (assay): NCI-60 cell line screen, 48 h

For `CCc1ccccc1NC(=O)/C=C/c1ccccc1`, the GI50 was > 100 µM (inactive) with 786-0; > 100 µM (inactive) with A498; > 100 µM (inactive) with BT-549; > 100 µM (inactive) in the assay on CAKI-1; > 100 µM (inactive) in the assay on HCT-116; 70.6 µM (inactive) in the assay with Hs-578T. Besides, the GI50 in the assay on MCF7, with MDA-N, in the assay on Malme-3M, in the assay with NCI-H226, with OVCAR-4 and with SF-295 was > 100 µM (inactive) throughout. Also, the GI50 is > 100 µM (inactive) in the assay on SK-MEL-28; > 100 µM (inactive) in the assay with SK-MEL-2; > 100 µM (inactive) with SNB-19; > 100 µM (inactive) in the assay with T47D; 85.9 µM (inactive) with U-251; > 100 µM (inactive) with UACC-257. Further, in the assay with UACC-62, the GI50 is > 100 µM (inactive).
Regarding `COc1c(Cl)c(=O)oc2ccc(Cl)cc12`, the GI50 in the assay with 786-0, in the assay with A498, in the assay on BT-549, with CAKI-1, with HCT-116 and in the assay with Hs-578T was > 100 µM (inactive) each time. Besides, the GI50 was > 100 µM (inactive) in the assay with MCF7; > 100 µM (inactive) with MDA-N; > 100 µM (inactive) in the assay with Malme-3M; > 100 µM (inactive) in the assay on NCI-H226; > 100 µM (inactive) in the assay with OVCAR-4; 53.2 µM (inactive) in the assay with SF-295. Moreover, the GI50 in the assay with SK-MEL-28 was > 100 µM (inactive); in the assay with SK-MEL-2 it was > 100 µM (inactive); in the assay on SNB-19, > 100 µM (inactive); in the assay with T47D it was > 100 µM (inactive); in the assay on U-251, 60.7 µM (inactive); in the assay with UACC-257, > 100 µM (inactive). Further, the GI50 with UACC-62 is > 100 µM (inactive).
`NC1C/C(=N\O)c2c(I)sc(I)c21` (centres undefined): the GI50 in the assay on 786-0 is 16 µM (inactive); in the assay with A498, 27 µM (inactive); with BT-549, 15.9 µM (inactive); in the assay on CAKI-1, 15.2 µM (inactive); with HCT-116, 2.86 µM (inactive); in the assay with Hs-578T, 19.8 µM (inactive). The GI50 is 7.31 µM (inactive) in the assay with MCF7; 19.8 µM (inactive) in the assay on MDA-N; 15.7 µM (inactive) in the assay on Malme-3M; 18.4 µM (inactive) with NCI-H226; 22 µM (inactive) with OVCAR-4; 17.2 µM (inactive) with SF-295. In addition, the GI50 in the assay on SK-MEL-28 is 17.5 µM (inactive); in the assay with SK-MEL-2 it was 17.5 µM (inactive); in the assay on SNB-19 it was 17.2 µM (inactive); in the assay with T47D, 23.2 µM (inactive); in the assay with U-251 it was 18.3 µM (inactive); with UACC-257, 16 µM (inactive). For the same molecule, the GI50 with UACC-62 is 17.3 µM (inactive).
Take `S=C1NNC(=S)NN1`: the GI50 in the assay with 786-0 is > 1 µM (active); in the assay on A498, > 1 µM (active); in the assay with BT-549 it was 0.522 µM (active); with CAKI-1, 0.225 µM (active); in the assay with HCT-116, 0.23 µM (active); in the assay with Hs-578T, 0.697 µM (active). Moreover, the GI50 was 0.328 µM (active) with MCF7; > 1 µM (active) with MDA-N; 0.594 µM (active) with Malme-3M; > 1 µM (active) in the assay on NCI-H226; > 1 µM (active) with OVCAR-4; 0.219 µM (active) in the assay with SF-295. Besides, the GI50 is > 1 µM (active) in the assay with SK-MEL-28; > 1 µM (active) in the assay with SK-MEL-2; > 1 µM (active) in the assay on SNB-19; 0.951 µM (active) with T47D; 0.583 µM (active) in the assay on U-251; > 1 µM (active) in the assay with UACC-257. Besides, the GI50 with UACC-62 was 0.296 µM (active).
As for `COc1ccc(P2(=S)SP(=S)(c3ccc(Cl)cc3)S2)cc1` (centres undefined), the GI50 with 786-0, in the assay with A498, in the assay with BT-549, with CAKI-1, in the assay on HCT-116 and in the assay with Hs-578T was > 100 µM (inactive) each time. In addition, the GI50 in the assay on MCF7, in the assay on MDA-N, in the assay with Malme-3M, in the assay on NCI-H226, in the assay on OVCAR-4 and in the assay with SF-295 was > 100 µM (inactive) in each case. Moreover, the GI50 in the assay on SK-MEL-28, in the assay on SK-MEL-2, with SNB-19, in the assay with T47D, in the assay on U-251 and in the assay on UACC-257 was > 100 µM (inactive) each time. The GI50 in the assay with UACC-62 is > 100 µM (inactive).
As to `C=C(C(=O)OC)N1C(=O)CC(C)C1=O` (centres undefined), the GI50 in the assay on 786-0 is 10.7 µM (inactive); in the assay on A498, 20.7 µM (inactive); with BT-549 it was 14.6 µM (inactive); in the assay with CAKI-1 it was 1.13 µM (inactive); in the assay on HCT-116, 6.67 µM (inactive); in the assay with Hs-578T it was 24.3 µM (inactive). The GI50 is 10.3 µM (inactive) with MCF7; 14.2 µM (inactive) in the assay with MDA-N; 2.45 µM (inactive) in the assay on Malme-3M; 27 µM (inactive) in the assay on NCI-H226; 18.2 µM (inactive) in the assay on OVCAR-4; 29.1 µM (inactive) with SF-295. For the same molecule, the GI50 in the assay with SK-MEL-28 was 9.55 µM (inactive); in the assay with SK-MEL-2, 16.9 µM (inactive); in the assay on SNB-19, 21.4 µM (inactive); with T47D, 11.1 µM (inactive); in the assay on U-251, 17.4 µM (inactive); in the assay on UACC-257, 12.3 µM (inactive). In addition, the GI50 in the assay on UACC-62 was 15.2 µM (inactive).
As to `O=S(=O)(CC#CCS(=O)(=O)c1ccccc1)c1ccccc1`, the GI50 in the assay with 786-0 was 0.973 µM (active); with A498 it was 16.1 µM (inactive); in the assay on BT-549, 3.13 µM (inactive); in the assay with CAKI-1 it was 1.77 µM (inactive); in the assay on HCT-116, 1.01 µM (active); in the assay with Hs-578T it was 5.14 µM (inactive). The GI50 in the assay with MCF7 was 1.99 µM (inactive); in the assay with MDA-N, 1.77 µM (inactive); with Malme-3M, 1.9 µM (inactive); in the assay on NCI-H226, 14.6 µM (inactive); with OVCAR-4, 1.84 µM (inactive); in the assay with SF-295, 18.5 µM (inactive). The GI50 in the assay with SK-MEL-28 is 7.46 µM (inactive); in the assay on SK-MEL-2, 5.69 µM (inactive); in the assay on SNB-19 it was 16.3 µM (inactive); in the assay with T47D it was 1.95 µM (inactive); in the assay with U-251 it was 8.55 µM (inactive); with UACC-257, 4.32 µM (inactive). For the same molecule, the GI50 in the assay on UACC-62 is 3.55 µM (inactive).
Regarding `CCOC(=O)c1ccc(Nc2cnc3ccc(C(F)(F)F)cc3n2)cc1`, the GI50 in the assay on 786-0 was 13.9 µM (inactive); in the assay with A498 it was 16.6 µM (inactive); in the assay on BT-549, 15.8 µM (inactive); with CAKI-1 it was 16.9 µM (inactive); in the assay on HCT-116, 14.8 µM (inactive); in the assay with Hs-578T it was 17.4 µM (inactive). The GI50 with MCF7 was 19.1 µM (inactive); in the assay with MDA-N, 17.9 µM (inactive); with Malme-3M, 21.4 µM (inactive); in the assay on NCI-H226, 16.4 µM (inactive); in the assay with OVCAR-4, 11.6 µM (inactive); in the assay with SF-295 it was 20.7 µM (inactive). The GI50 with SK-MEL-28 was 15.8 µM (inactive); in the assay with SK-MEL-2, 15.1 µM (inactive); with SNB-19 it was 28.1 µM (inactive); with T47D it was 18.7 µM (inactive); in the assay on U-251 it was 16.8 µM (inactive); with UACC-257 it was 18.4 µM (inactive). The GI50 in the assay on UACC-62 is 13.6 µM (inactive).
Consider `C/C(=N\NC(=S)NC(C)(C)C)c1ccccn1`, for which the GI50 in the assay with 786-0 was < 0.0406 µM (active); with A498 it was 0.248 µM (active); in the assay with BT-549 it was 3.1 µM (inactive); with CAKI-1, < 0.0333 µM (active); in the assay with HCT-116 it was < 0.01 µM (active); with Hs-578T, 1.12 µM (inactive). The GI50 was < 0.01 µM (active) with MCF7; 0.131 µM (active) in the assay with MDA-N; 2.83 µM (inactive) in the assay on Malme-3M; 0.0675 µM (active) in the assay on NCI-H226; 4.1 µM (inactive) with OVCAR-4; 0.589 µM (active) in the assay with SF-295. Further, the GI50 with SK-MEL-28 was 3.66 µM (inactive); in the assay on SK-MEL-2, 0.408 µM (active); in the assay with SNB-19, 4.5 µM (inactive); in the assay on T47D, < 0.01 µM (active); in the assay with U-251 it was 0.0252 µM (active); with UACC-257 it was < 0.01 µM (active). Moreover, the GI50 in the assay with UACC-62 is 0.332 µM (active).
As to `Fc1ccc2nc3n(c2c1)C(c1c(F)cccc1F)SC3` (centres undefined), the GI50 in the assay on 786-0 was > 100 µM (inactive); in the assay on A498, 65.5 µM (inactive); with BT-549 it was 70 µM (inactive); in the assay with CAKI-1, 35.2 µM (inactive); in the assay on HCT-116, 24.5 µM (inactive); in the assay with Hs-578T, > 100 µM (inactive). Also, the GI50 is 39.9 µM (inactive) in the assay with MCF7; 26.7 µM (inactive) with MDA-N; > 100 µM (inactive) in the assay on Malme-3M; > 100 µM (inactive) in the assay with NCI-H226; 64.3 µM (inactive) in the assay on OVCAR-4; 46 µM (inactive) in the assay on SF-295. Further, the GI50 in the assay with SK-MEL-28 is > 100 µM (inactive); in the assay with SK-MEL-2, 96.8 µM (inactive); in the assay with SNB-19, > 100 µM (inactive); in the assay on T47D it was 40.6 µM (inactive); in the assay on U-251, 76.4 µM (inactive); in the assay with UACC-257, 47.8 µM (inactive). Also, the GI50 with UACC-62 is 82.4 µM (inactive).
For `CCC/C(Cl)=N\OC(=O)Nc1ccc(F)cc1`, the GI50 is 6.5 µM (inactive) in the assay with 786-0; 16.9 µM (inactive) in the assay with A498; 15.1 µM (inactive) in the assay with BT-549; 1.91 µM (inactive) in the assay with CAKI-1; 16.7 µM (inactive) in the assay with HCT-116; 41.5 µM (inactive) in the assay on Hs-578T. For the same molecule, the GI50 in the assay on MCF7 is 20 µM (inactive); in the assay on MDA-N, 16.3 µM (inactive); in the assay with Malme-3M, 6.87 µM (inactive); in the assay on NCI-H226, 19.7 µM (inactive); in the assay with OVCAR-4, 16.9 µM (inactive); with SF-295 it was > 100 µM (inactive). Besides, the GI50 is 18.5 µM (inactive) in the assay with SK-MEL-28; 18.2 µM (inactive) in the assay with SK-MEL-2; 19.2 µM (inactive) in the assay on SNB-19; 7.24 µM (inactive) in the assay on T47D; 18.2 µM (inactive) in the assay on U-251; 16.7 µM (inactive) in the assay with UACC-257. In the assay with UACC-62, the GI50 is 13.6 µM (inactive).
